Data set [1] concerns HIV-1 (NL4.3 strain) carrying the GFP reporter gene (NL4.3-GFP). Briefly: HIV-1 NL4.3-GFP infection of SupT1 cells. The format is cell-based. As to conditions: Human immunodeficiency virus 1, SUP-T1, read-out: Inhibitory activity (EC50) of HIV-1 (NL4.3 strain) carrying the GFP reporter gene. The method, then: 6. Inhibitory Activity of HIV-1 (NL4.3 Strain) Carrying the GFP Reporter Gene (NL4.3-GFP) in the SuPT1 Cell Line.
The evaluation was done by RetroVirox Inc. (San Diego, Calif., USA). SupT1 cells were infected with the HIV NL4.3 strain carrying the green fluorescent protein gene (NL4.3-GFP). The virus sample was produced by transfection of 293T cells with proviral DNA. The sample was frozen 48 hours after transfection and stored until use. To enhance the efficiency of infection, a suspension of SupT1 cells was precipitated from the infectious mixture by centrifugation. Test substances were added to the cells immediately before adding the virus. After 2 hours of incubation, the infectious mixture was replaced with a fresh culture medium containing test samples. The effectiveness of the infection was determined after 45 hours by counting the percentage of fluorescent cells in comparison with uninfected cell cultures. The cytotoxicity of the test compounds was determined in parallel on the same, but not infected, SupT1 cell line using the XTT reagent. Serial tenfold dilutions of the samples (starting from 10 μM when determining antiviral activity or from 100 μM for determining cytotoxicity). As a negative control, 0.1% DMSO was used. The values of EC50 were calculated. The quality of the tests was determined using the following controls: signal-to-noise ratio, integrase inhibitor raltegravir (1 μM), and test reproducibility.
For orientation: In a reporter assay the amount or activity of a reporter protein is the signal.

Data set [2] is described as follows: Thermodynamic (shake-flask) solubility. The format is physicochemical. Conditions: for solubility at 24 h: thermodynamic from solid. The method, then: The test compound of general formula 1 or 2 (2 mg) was weighed into a glass vial. The pION universal buffer (0.5 ml) with pH 7.4 or deionized water was added to appropriate vials. The vials were tightly closed with a lid, placed on a rotating shaker, and incubated for 24 hours to balance the solution and the solid phase at the saturation point. Each resulting solution (200 μl) was taken (in duplicate) from the vials, placed in a 96-well MultiScreen Solubility Filter Plate (Millipore), and filtered using vacuum ([…]) into a polypropylene plate with a U-shaped bottom. If necessary, the filtrates were diluted with an appropriate buffer (water). Then, 120 μl of the filtarate (or a diluted filtrate) was transferred to a 96-well plate with a UV-transparent bottom and 60 μl/well of acetonitrile and 20 μl/well of DMSO were added and thoroughly mixed with a multichannel pipette (acetonitrile and DMSO were added to obtain a required composition of calibration standards, as described below). The optical density of the resulting solutions was measured on a multifunction Infinite 200 PRO plate reader in the wavelength range from 240 nm to 400 nm in steps of 10 nm. The value of ODλ for solutions was assessed at a wavelength chosen for plotting a calibration curve.
The concentration of a substance in the solution after the solubility test was evaluated using a calibration curve. A stock solution in DMSO with a concentration of 2 mg/ml was prepared from a separate sample. […] The range of final concentrations of the calibration curve was 0.2; 0.1; 0.05; 0.025; 0.0125; 0.00625, and 0 mg/ml. Calibration solutions were prepared in a 96-well UV plate as follows: 20 μl of a 10-fold stock solution in DMSO, 60 μl of acetonitrile, and 120 μl of the appropriate buffer were added to the well and stirred. The optical density of the resulting solutions was measured on a multifunction Infinite 200 PRO plate reader in the wavelength range from 240 nm to 400 nm with a step of 10 nm. The optimal wavelength typically corresponding to the absorption maximum was chosen, and a linear dependence of OD at a given wavelength on the concentration of the compound was obtained.
The concentration of the compound in the filtrate after the solubility test was calculated according to the formula:
shake-flask solubility=(ODλfiltrate−ODλblank)/(slope×1.67×filtrate dilution)
wherein slope means the slope of the calibration curve; 1.67 is the filtrate acetonitrile+DMSO dilution ratio; filtrate dilution is an additional dilution of the filtrate, if applicable.

The test system of a further data set is human plasma proteins. Briefly: Plasma protein binding by equilibrium dialysis, human. In kind it is in vitro ADME. As to conditions: for Binding class / Extraction / Permeability: human; for Bound: human plasma diluted to 50%, 37° C.; for Bound / Extraction / Permeability: 1 μM, 4 h; for Permeability: dialysis membrane. On the procedure: (§1) To assess protein binding, pooled samples of blood plasma diluted with phosphate buffer up to 50% were used. The test was carried out in a teflon coated 48-well dialysis plate. Each well contained two separate chambers separated by a vertical semipermeable dialysis membrane with 8 kDa pores. A plasma sample with 1 μM of the test compound was placed into one of the chambers, and a buffer solution (pH=7.2) was placed in the other chamber. Over time, at 37° C. while rocking, passive diffusion of the unbound compound occurred and after 4 hours the equilibrium state between the chambers with plasma and the buffer solution was reached. The amount of free fraction was evaluated by HPLC-MS/MS following precipitation of the proteins by acetonitrile. Also, the study involved evaluation of stability of the substance during the 4-hour period and passive permeability through the dialysis membrane in the buffer by mass balance. Warfarin was used as the control compound. The results are presented in Table 4, from which it follows that the compounds of general formula 1.1 have a high degree of binding to human and rat plasma proteins.

A further data set deals with rat plasma proteins. Briefly: Plasma protein binding by equilibrium dialysis, rat. Conditions: for Binding class / Extraction / Permeability: rat; for Bound: rat plasma diluted to 50%, 37° C.; for Bound / Extraction / Permeability: 1 μM, 4 h; for Permeability: dialysis membrane. In kind it is in vitro ADME. On the procedure: as §1
[3] abbreviates: aqueous buffer, pION universal buffer pH 7.4, 24 h, read-out: Solubility, pH 7.4, value.

The structures appear in SMILES notation. In brackets after ≈: the same amount, converted by molar mass. Where two headings read alike, the source gives them in different places.

On to `C[C@H]1CO[C@@H]2Cn3cc(C(=O)NCc4ccc(F)nc4F)c(=O)c(O)c3C(=O)N12` [Compound 1.1.19, (3S,11aR)-6-hydroxy-N-[(2,6-difluoropyridin-3-yl)methyl]-3-methyl-5,7-dioxo-2,3,5,7,11,11a-hexahydro[1,3]oxazolo[3,2-a]pyrido[1,2-d]pyrazine-8-carboxamide], for which the EC50 (as a rule, the concentration giving half of the maximal effect) in data set [1] was 1.9 nM. Besides, the solubility (as a rule, how much of the substance goes into solution per volume) at 24 h in data set [2] (setting [3]) is 232 µg/mL (≈ 571 µM). For the same compound, the “Solubility, water, value” in data set [2] (deionized water, 24 h) came out at 269 µg/mL (≈ 662 µM). The solubility at 24 h in data set [2] (deionized water, water, read-out: Solubility in water) was determined as 269 µg/mL (≈ 662 µM). Besides, in the data set with human plasma proteins, the Binding class result is on record as “High”, the Bound stood at 99.0%, the Extraction is 95.0% and the Permeability came out at 84.0%. In the data set with rat plasma proteins, the Binding class result is listed as “High”, the Bound was found to be 98.9%, the Extraction was found to be 94.5% and the Permeability is 83.8%.

Take `C[C@H]1CO[C@@H]2Cn3cc(C(=O)NCc4ncc(F)cc4F)c(=O)c(O)c3C(=O)N12` [Compound 1.1.17, (3S,11aR)-6-hydroxy-N-[(3,5-difluoropyridin-2-yl)methyl]-3-methyl-5,7-dioxo-2,3,5,7,11,11a-hexahydro[1,3]oxazolo[3,2-a]pyrido[1,2-d]pyrazine-8-carboxamide]: in data set [1], the EC50 came to 1.5 nM. Moreover, in data set [2] (setting [3]), the solubility at 24 h stood at 196 µg/mL (≈ 482 µM). The solubility at 24 h in data set [2] (deionized water, 24 h, read-out: Solubility, water, value) was 131 µg/mL (≈ 322 µM). In addition, in the data set with human plasma proteins, the Binding class result is “High”, the Bound is 98.8%, the Extraction is recorded as 94.6% and the Permeability turned out to be 84.8%. For the same compound, in the data set with rat plasma proteins, the Binding class result is reported as “High”, the Bound was 99.9%, the Extraction amounted to 108% and the Permeability turned out to be 90.9%.

The record behind these values is US20230020329A1, “Annelated 9-hydroxy-1,8-dioxo-1,3,4,8-tetrahydro-2H-pyrido[1,2-a]pyrazine-7-carboxamides as HIV integrase inhibitors, methods of preparation and application thereof” (priority 2019, published 2023).
